Results: patent publication US20080058890A1, “HOMOTOPIC CO[…] THE BRAIN STEM […] A SUBJECT” (The Penn State Research Foundation, priority 2006, published 2008)

Test system: NMDA receptor
Details: NMB rat; CPP 2.5 mg total i.v. (1.25 mg/ml x 0.2 ml/min x 10 min) infused before tetanus; ERs hours 7-16 post-tetanus vs control

Structure (SMILES): O=C(O)C1CN(CCCP(=O)(O)O)CCN1 (stereo not shown) [CPP, 3-(2-Carboxypiperazin-4-yl)-propyl-1-phosphoric acid]
- effect of a A+C-fiber tetanus on the A-fiber ERs (NTS evoked responses): blocked the effect of a A+C-fiber tetanus on the A-fiber ERs
